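Grown in 96-well plates, cells were treated for 48 hours with each compound at five concentrations. Insufficient inhibition: endpoint recorded as highest concentration tested. Here, GI50 denotes the concentration required for 50% inhibition of growth.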 Activity calls are given as the source filed them. Cut-off read from the data, not from the text of the source: active = GI50 up to about 1.1 µM and inactive = higher.
Key:
Experiment in all cases: growth of human tumour cells (NCI), 48 h
M14 = tested on: M14
MDA-N = tested on: MDA-N
Hs-578T = tested on: Hs-578T
SNB-75 = tested on: SNB-75
UO-31 = tested on: UO-31
BT-549 = tested on: BT-549
UACC-62 = tested on: UACC-62
IGROV-1 = tested on: IGROV-1
SF-295 = tested on: SF-295
K562 = tested on: K562
UACC-257 = tested on: UACC-257
DU-145 = tested on: DU-145
ACHN = tested on: ACHN
786-0 = tested on: 786-0
SK-MEL-5 = tested on: SK-MEL-5
Malme-3M = tested on: Malme-3M
CAKI-1 = tested on: CAKI-1
RPMI-8226 = tested on: RPMI-8226
COLO 205 = tested on: COLO 205

SMILES	GI50 (M14)	GI50 (MDA-N)	GI50 (Hs-578T)	GI50 (SNB-75)	GI50 (UO-31)	GI50 (BT-549)	GI50 (UACC-62)	GI50 (IGROV-1)	GI50 (SF-295)	GI50 (K562)	GI50 (UACC-257)	GI50 (DU-145)	GI50 (ACHN)	GI50 (786-0)	GI50 (SK-MEL-5)	GI50 (Malme-3M)	GI50 (CAKI-1)	GI50 (RPMI-8226)	GI50 (COLO 205)
CC(=O)O[C@H]1CC[C@H]2[C@@H]3CCC4=C(C(=O)C=CC4(C)OC(C)=O)[C@H]3CC[C@]12C (stereo partly specified)	46.8 µM (inactive)	34.6 µM (inactive)	> 100 µM (inactive)	45 µM (inactive)	55.3 µM (inactive)	26.2 µM (inactive)	23.1 µM (inactive)	> 100 µM (inactive)	98.4 µM (inactive)	33.1 µM (inactive)	> 100 µM (inactive)	> 100 µM (inactive)	54 µM (inactive)	86.7 µM (inactive)	47.9 µM (inactive)	> 100 µM (inactive)	> 100 µM (inactive)	38.3 µM (inactive)	
O=C1C=C2CO[C@H]3OC[C@H](O)[C@@H]1[C@@H]23	> 100 µM (inactive)	35.2 µM (inactive)	> 100 µM (inactive)	43 µM (inactive)	37.3 µM (inactive)	53.1 µM (inactive)	67.5 µM (inactive)	> 100 µM (inactive)	> 100 µM (inactive)	26.9 µM (inactive)	29.8 µM (inactive)	> 100 µM (inactive)	> 100 µM (inactive)	35 µM (inactive)	> 100 µM (inactive)	21.6 µM (inactive)	29 µM (inactive)	20.4 µM (inactive)	16.4 µM (inactive)
C=C=C(CC(CC(=C)Br)(C(=O)OC)C(=O)OC)S(=O)(=O)c1ccccc1	1.96 µM (inactive)	2.44 µM (inactive)	2.39 µM (inactive)	6.22 µM (inactive)	1.71 µM (inactive)	1.4 µM (inactive)	1.61 µM (inactive)	1.66 µM (inactive)	13.4 µM (inactive)	1.48 µM (inactive)	2.03 µM (inactive)	1.6 µM (inactive)	2.39 µM (inactive)	1.05 µM (active)	3.11 µM (inactive)	1.91 µM (inactive)	1.41 µM (inactive)	1.85 µM (inactive)	1.84 µM (inactive)
CN(C)CCCNC(=O)c1c(O)c2ccccc2[nH]c1=O		> 100 µM (inactive)	> 100 µM (inactive)	> 100 µM (inactive)	14.5 µM (inactive)	> 100 µM (inactive)	> 100 µM (inactive)	42 µM (inactive)	22.9 µM (inactive)	> 100 µM (inactive)	> 100 µM (inactive)	> 100 µM (inactive)	> 100 µM (inactive)	> 100 µM (inactive)	> 100 µM (inactive)	> 100 µM (inactive)	47.2 µM (inactive)	> 100 µM (inactive)	41.1 µM (inactive)
COc1ccccc1/N=N/C(=N\NC(=O)c1ccc(C)cc1)c1ccc(N(CCC#N)CCC#N)cc1C	38.2 µM (inactive)	45.6 µM (inactive)	39.3 µM (inactive)	24.1 µM (inactive)	61.9 µM (inactive)	35.2 µM (inactive)		33.7 µM (inactive)	48.5 µM (inactive)	37.8 µM (inactive)	40.3 µM (inactive)	32.6 µM (inactive)	89.1 µM (inactive)	70.3 µM (inactive)	20.8 µM (inactive)	25.4 µM (inactive)	> 100 µM (inactive)	40.4 µM (inactive)	15.7 µM (inactive)
C=CCN1C(=O)N/C(=C\c2ccc(Cl)cc2)C1=O	> 100 µM (inactive)	> 100 µM (inactive)	> 100 µM (inactive)	> 100 µM (inactive)		> 100 µM (inactive)	97.7 µM (inactive)	> 100 µM (inactive)	> 100 µM (inactive)	> 100 µM (inactive)	> 100 µM (inactive)	> 100 µM (inactive)	> 100 µM (inactive)	> 100 µM (inactive)	> 100 µM (inactive)	> 100 µM (inactive)	> 100 µM (inactive)	> 100 µM (inactive)	> 100 µM (inactive)
C1=CCC[C@@H]2CN3CCCC/C=C\CCCC[C@H]4C[C@H](CN(CCCCCCCC1)C4)[C@H]2CC3	8.97 µM (inactive)	8.79 µM (inactive)	10.3 µM (inactive)	8.95 µM (inactive)		12.9 µM (inactive)	9.46 µM (inactive)	10.2 µM (inactive)	9.27 µM (inactive)	9.79 µM (inactive)	10.2 µM (inactive)	18.2 µM (inactive)	9.68 µM (inactive)	8.67 µM (inactive)	9.27 µM (inactive)	9.33 µM (inactive)	9.23 µM (inactive)	8.11 µM (inactive)	8.28 µM (inactive)
CCCCC(Sc1cc(Cl)c(C)cc1S(=O)(=O)Nc1nc(N)n[nH]1)C(=O)OC (stereo unspecified)	> 10 µM (inactive)	> 10 µM (inactive)	> 10 µM (inactive)	> 10 µM (inactive)		> 10 µM (inactive)	> 10 µM (inactive)	> 10 µM (inactive)	> 10 µM (inactive)	> 10 µM (inactive)	> 10 µM (inactive)	> 10 µM (inactive)	> 10 µM (inactive)	> 10 µM (inactive)	> 10 µM (inactive)	> 10 µM (inactive)	> 10 µM (inactive)	> 10 µM (inactive)	> 10 µM (inactive)

Source: ChEMBL document CHEMBL1201862, “PubChem BioAssay data set” (2004)
